Consider five compounds from patent US11479533B2, “Inhibitors of Rho associated coiled-coil containing protein kinase” (KADMON CORPORATION, LLC, priority 2017, dated 2022).

Structures are written as SMILES.

Data set [1] addresses recombinant ROCK1 (amino acids 1-535) (Homo sapiens (Human), UniProt Q13464). Nature of the data set: Z'-lyte kinase assay, ROCK1. It counts as biochemical. As for the experimental part: Determination of compounds ROCK inhibitory activity in vitro (Z'lyte assay): recombinant ROCK1 (amino acids 1-535) and ROCK2 (amino acids 1-552) proteins were purchased from ThermoFisher Scientific. Compounds activities were measured by Z'-lyte kinase kit (ThermoFisher Scientific) and IC50s were calculated.
Compounds activities were measured by Z'-lyte kinase kit (ThermoFisher Scientific). […] IC50s were calculated using the GraphPad Prism software with kinase activities data that were collected from 9 points serial dilution of compounds treatment. The ROCK inhibition in A7R5 cells and NIH3T3 (Acta2-Luc) cells was performed as described above.
The percent inhibition rate was calculated by normalizing the kinase activity value obtained with compound treatment against DMSO control value and then applied to the equation, […]. IC50's were calculated using the nonlinear regression curve fit function of the GraphPad Prism software with kinase activities data measured with 9 points 2-fold serial dilution of compounds treatment.

Data set [2] has as its system human oligodendrocyte/neuron progenitor cells. Nature of the data set: Aβ 1-42 induced cell death assay on human oligodendrocyte/neuron progenitors. It counts as cell-based. To be noted: 3 μM, 10.5 μM Aβ1-42, 24 hour. The protocol:
Aβ 1-42 induced cell death assay on human oligodendrocyte/neuron progenitors in 96-well plate. Cells were seeded on poly-L-ornithine and laminin coated plates at a density of 8,000 cells per well and maintained in expansion media until Day 3, then media was replaced with fresh spontaneous differentiation media containing testing compounds and IncuCyte Annexin V Red Reagent (1:200 dilution) (Essen BioScience Cat. No. 4641). After the pre-incubation period of 30 minutes at 37° C., 10.5 μM Aβ 1-42 (Bachem Product No. H-8146) was added directly in the pretreatment solution. Neurite length and total Annexin V positive area were analyzed by IncuCyte S3 Live Cell Analysis System every 2 hours.
In addition to promoting neuroregeneration, ROCK inhibitors have been reported to exert neuroprotective effects and prolong neuronal survival. Here we test the neuroprotective effect of ROCK inhibitors against Aβ1-42. Human oligodendrocyte/neuron progenitor cells were pre-incubated with ROCK inhibitors for 30 minutes before exposing to 10.5 μM Aβ1-42. IncuCyte Annexin V Red Reagent was added to culture media to label cell apoptosis. Pictures were taken by IncuCyte S3 and total Annexin V positive area was analyzed by IncuCyte S3 base software. Neurite length was quantified by IncuCyte NeuroTrack Software Module, see FIGS. 3b and 3c.

Data set [3] concerns ACTA2-promoter-driven-luciferase in NIH3T3 cells. Nature of the data set: NIH3T3 Acta2-promoter driven-luciferase assay. It counts as cell-based. To be noted: Mus musculus, plus TGFβ1, 24 hr, read-out: NIH3T3, Acta2-luc, IC50. The procedure, abridged: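 Stable NIH3T3 line carrying luciferase reporter under human ACTA2 promoter (−1000-1 bp); confluent cells given 9-point compound dilutions with TGFβ1 for 24 hr. Lysed cells read for luciferase; IC50 from nonlinear regression fit.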

The subject of data set [4] is human oligodendrocyte/neuron progenitor cells. Put plainly: Neurite outgrowth and differentiation of human oligodendrocyte/neuron progenitors. Format: cell-based. The protocol:
Thawing and proliferation of human oligodendrocyte/neuron progenitor cells (OPCs). Cryopreserved human oligodendrocyte/neuron progenitors (Millipore Cat. No. CS204496) were recovered and cultured on maltrigel (BD Cat. No. 356324) coated T-25 flask in expansion media containing OPC/neuron basal medium, N21 medium supplement, recombinant human bFGF, PDGF-AA and NT-3. When cells reached 80% confluent, 3 ml of Accutase was applied (Millipore SCR005) to passage cells at 1:4 ratio. Sub-cultured cells were maintained in expansion media for proliferation.
Spontaneous differentiation of human oligodendrocyte/neuron progenitors in 24-well and 96-well plates. Coat plate with 10 μg/ml poly-L-ornithine (Sigma Cat. No. P4957) overnight at room temperature. Remove the poly-L-ornithine solution and rinse the plate with 1×PBS, add 10 μg/ml laminin (Millipore Cat. No. CC095) and incubate at 37° C. for at least 2 hours. Seed cells on the coated plates in expansion media and allowed to attach overnight. The next day expansion media was removed and replaced with freshly prepared spontaneous differentiation media only containing OPC/neuron basal media and N21 media supplement. For 14 day culture, differentiation media was replaced every 3-4 days. Cells were imaged and neurite length was analyzed by IncuCyte S3 Live Cell Analysis System every 4 hours. After 14 days of differentiation, cells were fixed by 4% paraformaldehyde and stained with DAPI and Neuron-specific ß-III tubulin antibody (R&D systems, NL1195R).

Data set [5] has the same test system. Nature of the data set: Chondroitin Sulfate Proteoglycan (CSPG) assay on human oligodendrocyte/neuron progenitors. It counts as cell-based. The conditions noted are these: 1 μM and 3 μM, 72 hour. The protocol: Chondroitin Sulfate Proteoglycan (CSPG) assay on human oligodendrocyte/neuron progenitors in 96-well plate. […] Cells were seeded on the coated plates at a density of 6,000 cells per well in expansion media. The following day the expansion media was replaced with fresh spontaneous differentiation media containing testing compounds. Cells were imaged and neurite length was analyzed by IncuCyte S3 Live Cell Analysis System every 4 hours.

Data set [6] addresses recombinant ROCK2 (amino acids 1-552) (Homo sapiens (Human), UniProt O75116). Put plainly: Z'-lyte kinase assay, ROCK2. It counts as biochemical. The method, boiled down:
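Inhibition of recombinant human ROCK2 (residues 1-552, sourced from ThermoFisher Scientific) was assessed in vitro with the Z'-lyte kinase kit. Kinase activity with compound was normalized to DMSO control to give percent inhibition. IC50s came from 9-point 2-fold serial dilutions fitted by nonlinear regression in GraphPad Prism.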

Data set [7] has as its system ppMlc (T18/S19) levels in A7R5 cells. Put plainly: A7R5 in-cell ELISA assay (ppMlc). Format: cell-based, rat. To be noted: Rattus norvegicus, A7R5, A7R5 cells, Table 2; read-out: pMLC IC50 (nM) A7R5. The method, boiled down: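 Rat aortic smooth muscle A7R5 cells in DMEM with 10% FBS, seeded 24 h, then treated 90 min with 9-point 2-fold compound dilutions. ppMlc (T18/S19) measured by colorimetric in-cell ELISA; cellular IC50 from nonlinear regression curve fit.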
(In general: An ELISA detects its analyte on a solid surface through an enzyme-linked reagent.)

The next data set concerns sAPPβ. The conditions noted are these: direct injection into hippocampus; cited from earlier work.
The conditions of data set [8]: cited from earlier work.

recombinant ROCK1 (amino acids 1-535), sequence (Q13464 1-535): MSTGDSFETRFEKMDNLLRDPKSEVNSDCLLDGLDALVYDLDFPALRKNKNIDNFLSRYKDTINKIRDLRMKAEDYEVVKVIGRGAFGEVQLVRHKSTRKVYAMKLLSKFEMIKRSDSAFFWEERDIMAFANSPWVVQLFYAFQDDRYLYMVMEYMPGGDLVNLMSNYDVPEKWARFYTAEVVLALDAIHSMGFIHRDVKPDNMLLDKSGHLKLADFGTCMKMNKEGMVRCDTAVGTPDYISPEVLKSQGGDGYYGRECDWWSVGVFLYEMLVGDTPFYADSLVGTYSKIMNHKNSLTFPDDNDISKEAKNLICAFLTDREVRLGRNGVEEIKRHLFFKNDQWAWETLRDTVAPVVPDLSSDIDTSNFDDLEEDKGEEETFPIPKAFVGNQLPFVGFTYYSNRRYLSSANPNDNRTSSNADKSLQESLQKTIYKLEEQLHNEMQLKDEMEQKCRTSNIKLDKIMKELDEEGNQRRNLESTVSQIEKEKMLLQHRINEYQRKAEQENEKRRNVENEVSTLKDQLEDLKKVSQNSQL
recombinant ROCK2 (amino acids 1-552), sequence (O75116 1-552): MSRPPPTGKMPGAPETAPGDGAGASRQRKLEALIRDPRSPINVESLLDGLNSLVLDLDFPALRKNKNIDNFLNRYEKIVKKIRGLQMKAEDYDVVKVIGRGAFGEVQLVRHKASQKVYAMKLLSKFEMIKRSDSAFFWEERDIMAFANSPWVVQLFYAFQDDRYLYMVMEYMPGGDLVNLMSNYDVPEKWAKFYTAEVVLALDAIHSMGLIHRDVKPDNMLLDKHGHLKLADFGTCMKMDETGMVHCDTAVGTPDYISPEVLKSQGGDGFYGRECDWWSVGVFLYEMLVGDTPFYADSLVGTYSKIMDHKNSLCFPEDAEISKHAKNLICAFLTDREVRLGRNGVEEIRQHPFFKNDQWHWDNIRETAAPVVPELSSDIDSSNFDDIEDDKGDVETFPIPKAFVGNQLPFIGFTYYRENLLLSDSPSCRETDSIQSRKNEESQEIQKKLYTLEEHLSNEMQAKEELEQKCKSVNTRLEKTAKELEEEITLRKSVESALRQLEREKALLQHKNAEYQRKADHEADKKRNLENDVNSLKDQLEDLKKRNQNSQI

`CNC(C(=O)Nc1ccc(-c2cn[nH]c2)cc1)c1ccc(Cl)cc1` (centres unmarked) [Example 17, N-(4-(1H-pyrazol-4-yl)phenyl)-2-(4-chlorophenyl)-2-(methylamino)acetamide]: the inhibition at 0.5 µM in data set [1] (@ 0.5 μM, read-out: ROCK1 % inh (0.5 μM)) was determined as 99%; in data set [6] (@ 0.5 μM, read-out: ROCK2 % inh (0.5 μM)), 98%. In addition, in [2], the “Aβ1-42 induced cell death (Annexin V area)” value is listed as “significantly protect”. For the same compound, the “neurite outgrowth in the presence of Aβ1-42” value in data set [2] is recorded as “promoted neurite outgrowth”. Also, the IC50 (commonly the midpoint of a concentration-inhibition curve) in data set [3] worked out at 108 nM; in [6], 6.3 nM; in data set [7], 60 nM. In addition, the “neuronal differentiation and maturation” value in [4] (14 days culture, Beta III tubulin) is “facility neuronal differentiation and maturation”. Also, in [4] (various concentrations, 3 days culture), the neurite length result is given as “significantly increase neurite length”. Also, in data set [5], the “CSPG mediated neurite outgrowth arrest” value is recorded as “significantly counteract”.

As for `CNCCN[C@@H](C(=O)Nc1ccc(-c2cn[nH]c2)cc1)c1cccc(OC)c1` [Example 62, (R)—N-(4-(1H-pyrazol-4-yl)phenyl)-2-(3-methoxyphenyl)-2-((2-(methylamino)ethyl)amino)acetamide], the IC50 in data set [1] was determined as 3 nM; in [3] it was 108 nM; in data set [6] it was 1.8 nM; in data set [7] it was 58 nM.

In the case of `CNCCN[C@H](C(=O)Nc1ccc(-c2cn[nH]c2)cc1)c1cccc(OC)c1` [Example 63, (S)—N-(4-(1H-pyrazol-4-yl)phenyl)-2-(3-methoxyphenyl)-2-((2-(methylamino)ethyl)amino)acetamide], the IC50 is 81 nM in data set [1], 633 nM in data set [3], 22 nM in data set [6] and 548 nM in data set [7].

Take `CNC(C(=O)Nc1cc(OC)c(-c2cn[nH]c2)cc1F)c1cccc(OC)c1` (centres unmarked) [Example 66, N-(2-fluoro-5-methoxy-4-(1H-pyrazol-4-yl)phenyl)-2-(3-methoxyphenyl)-2-(methylamino)acetamide]: the IC50 in data set [1] was 56 nM; in data set [3], 396 nM; in data set [6], 18 nM; in data set [7], 332 nM.

For the compound `CN(C)CCOc1cc(-c2cn[nH]c2)ccc1NC(=O)C1COc2ccccc2O1` (centres unmarked) [SR3677], the sAPPβ result in the data set on sAPPβ is recorded as “lowering sAPPβ”. Besides, the brain penetration entry in data set [8] (in vivo) is recorded as “lack of brain penetration”. Moreover, the half-life (as a rule, the time in which the quantity being followed falls by half) in [8] (oral PK) was less than 1 h. For the same compound, the “oral bioavailability (F)” value in data set [8] (oral) is given as 5%.
